17 molecules from patent US11046686B2, “Thiadiazole IRAK4 compounds” (Gilead Sciences, Inc., priority 2018, dated 2021) can be followed below.

For one assay, the system named is TNFα. The assay is described as follows: IRAK4 Monocyte TNFα Cell Based Assay. On the set-up: species or system human. As to conditions: Homo sapiens, Monocyte, human monocytes; second part of Table 2, compounds 33-343; unit inferred; read-out: EC50 MONO TNF HTRF. The essentials:
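Human monocytes (5,000/well) pretreated with compound 1 h at 37 °C (0.1% DMSO final), then stimulated with 50 pg/ml LPS for 4 h. Secreted TNFα measured by TR-FRET two-antibody detection after overnight incubation at room temperature; % control relative to unstimulated and LPS-stimulated wells.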

The target in a further assay is IRAK4 enzyme (Homo sapiens (Human), UniProt Q9NWZ3). Put plainly: IRAK4 Biochemical Assay (TR-FRET, STK1 KinEASE). The method, boiled down: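 IRAK4 (0.75 nM) preincubated 15 min with compound and […] STK1 peptide, then started with 500 μM ATP in HEPES pH 7.0 buffer with MgCl2, DTT, BSA, NP-40; 120 min at room temperature.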
(In general: TR-FRET usually uses a lanthanide donor and a delayed reading to cut background.)

A word on the EC50: it is the concentration at which the effect is half-maximal. By IC50 is commonly meant the concentration needed to halve the response being measured. A lower IC50 goes with inhibition by little substance.

IRAK4 enzyme, sequence (Q9NWZ3 whole entry): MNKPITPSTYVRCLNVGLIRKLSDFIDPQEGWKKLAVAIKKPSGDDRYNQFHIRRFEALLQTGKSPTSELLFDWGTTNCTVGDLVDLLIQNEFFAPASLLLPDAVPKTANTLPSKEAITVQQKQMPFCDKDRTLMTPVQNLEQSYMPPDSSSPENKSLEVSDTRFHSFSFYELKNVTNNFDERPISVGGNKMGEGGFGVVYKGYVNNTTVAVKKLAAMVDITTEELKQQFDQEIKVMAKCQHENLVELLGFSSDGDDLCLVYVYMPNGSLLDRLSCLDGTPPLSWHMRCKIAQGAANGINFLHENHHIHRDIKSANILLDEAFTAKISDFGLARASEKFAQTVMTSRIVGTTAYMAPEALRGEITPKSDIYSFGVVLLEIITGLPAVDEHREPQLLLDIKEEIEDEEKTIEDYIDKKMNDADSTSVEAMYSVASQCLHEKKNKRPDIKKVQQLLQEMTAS

Take `CC(C)Nc1cc(-c2ccc3cc(C#N)cnn23)ncc1-c1nnc(N2CCN3CCOC[C@H]3C2)s1` [Example 36, (R)-7-(5-(5-(hexahydropyrazino[2,1-c][1,4]oxazin-8(1H)-yl)-1,3,4-thiadiazol-2-yl)-4-(isopropylamino)pyridin-2-yl)pyrrolo[1,2-b]pyridazine-3-carbonitrile]: in the assay on TNFα, the EC50 is 5 nM. This molecule yielded an IC50 against IRAK4 enzyme of 0.48 nM.
For `CC(C)Nc1cc(-c2ccc3cc(C#N)cnn23)ncc1-c1nnc(NCC(C)(C)O)s1` [Example 37, 7-(5-(5-((2-hydroxy-2-methylpropyl)amino)-1,3,4-thiadiazol-2-yl)-4-(isopropylamino)pyridin-2-yl)pyrrolo[1,2-b]pyridazine-3-carbonitrile] the same measures were 10000 nM and 1000 nM.
For `CC(=O)N[C@@H]1CCN(C(=O)c2cnc(-c3cnc(-c4ccc5cc(C#N)cnn45)cc3NC(C)C)s2)C1` [Example 40, (R)-N-(1-(2-(6-(3-cyanopyrrolo[1,2-b]pyridazin-7-yl)-4-(isopropylamino)pyridin-3-yl)thiazole-5-carbonyl)pyrrolidin-3-yl)acetamide] the same measures were 87.6 nM and 3.09 nM.
Consider `CC(=O)NC[C@@H]1CCCN1C(=O)c1nnc(-c2cnc(-c3ccc4cc(C#N)cnn34)cc2NC(C)C)s1` [Example 41, (S)-N-((1-(5-(6-(3-cyanopyrrolo[1,2-b]pyridazin-7-yl)-4-(isopropylamino)pyridin-3-yl)-1,3,4-thiadiazole-2-carbonyl)pyrrolidin-2-yl)methyl)acetamide], for which, in the assay with TNFα, the half-maximal effective concentration (EC50) worked out at 11.6 nM. On IRAK4 enzyme, this molecule displayed an IC50 of 1.38 nM.
The like results for `COC(=O)N[C@@H]1CCN(C(=O)c2nnc(-c3cnc(-c4ccc5cc(C#N)cnn45)cc3NC(C)C)s2)C1` [Example 44, methyl (R)-(1-(5-(6-(3-cyanopyrrolo[1,2-b]pyridazin-7-yl)-4-(isopropylamino)pyridin-3-yl)-1,3,4-thiadiazole-2-carbonyl)pyrrolidin-3-yl)carbamate] were, in that order, 27.4 nM and 0.53 nM.
In the case of `CC(C)Nc1cc(-c2ccc3cc(C#N)cnn23)ncc1-c1nnc(C(=O)N2CC[C@H](NC(=O)C3CC3)C2)s1` [Example 46, (S)-N-(1-(5-(6-(3-cyanopyrrolo[1,2-b]pyridazin-7-yl)-4-(isopropylamino)pyridin-3-yl)-1,3,4-thiadiazole-2-carbonyl)pyrrolidin-3-yl)cyclopropanecarboxamide], in the assay on TNFα, the EC50 amounted to 16.7 nM. The molecule further had an IC50 against IRAK4 enzyme of 0.67 nM.
The like results for `CC(=O)N[C@H]1CCCN(C(=O)c2nnc(-c3cnc(-c4ccc5cc(C#N)cnn45)cc3NC(C)C)s2)C1` [Example 48, (S)-N-(1-(5-(6-(3-cyanopyrrolo[1,2-b]pyridazin-7-yl)-4-(isopropylamino)pyridin-3-yl)-1,3,4-thiadiazole-2-carbonyl)piperidin-3-yl)acetamide] were, in that order, 37.5 nM and 1.91 nM.
In the case of `CC(=O)N[C@@H]1CCCN(C(=O)c2nnc(-c3cnc(-c4ccc5cc(C#N)cnn45)cc3NC(C)C)s2)C1` [Example 49, (R)-N-(1-(5-(6-(3-cyanopyrrolo[1,2-b]pyridazin-7-yl)-4-(isopropylamino)pyridin-3-yl)-1,3,4-thiadiazole-2-carbonyl)piperidin-3-yl)acetamide], in the assay with TNFα, the EC50 was determined as 34.3 nM. Moreover, at IRAK4 enzyme, the IC50 was found to be 1.75 nM.
With `CC(=O)N[C@H]1CC[C@H](c2nnc(-c3cnc(-c4ccc5cnc(N[C@@H]6CCCC[C@@H]6N)nn45)cc3NC(C)C)s2)CC1` [Example 50, N-((1r,4r)-4-(5-(6-(2-(((1R,2S)-2-aminocyclohexyl)amino)pyrrolo[2,1-f][1,2,4]triazin-7-yl)-4-(isopropylamino)pyridin-3-yl)-1,3,4-thiadiazol-2-yl)cyclohexyl)acetamide], the 50% effective concentration (EC50) in the assay with TNFα amounted to 3.6 nM. Moreover, the IC50 at IRAK4 enzyme is 0.92 nM.
For `CC(=O)N[C@@H]1[C@@H]2CC[C@H]1CN(c1nnc(-c3cnc(-c4ccc5cnc(N[C@@H]6CCCC[C@@H]6N)nn45)cc3N[C@H](C)C#N)s1)C2` [Example 61, N-((1R,5S,8S)-3-(5-(6-(2-(((1R,2S)-2-aminocyclohexyl)amino)pyrrolo[2,1-f][1,2,4]triazin-7-yl)-4-(((R)-1-cyanoethyl)amino)pyridin-3-yl)-1,3,4-thiadiazol-2-yl)-3-azabicyclo[3.2.1]octan-8-yl)acetamide] the same measures were 5.3 nM and 1.01 nM.
For `CC(=O)N[C@H]1CCN(c2nnc(-c3cnc(-c4ccc5cc(C#N)cnn45)cc3NC(C)C)s2)C[C@H]1O` [Example 62, N-((3R,4S)-1-(5-(6-(3-cyanopyrrolo[1,2-b]pyridazin-7-yl)-4-(isopropylamino)pyridin-3-yl)-1,3,4-thiadiazol-2-yl)-3-hydroxypiperidin-4-yl)acetamide] the same measures were 12.5 nM and 0.38 nM.
On to `CC(=O)N[C@@H]1CCN(c2nnc(-c3cnc(-c4ccc5cc(C#N)cnn45)cc3NC(C)C)s2)C[C@H]1O` [Example 65, N-((3R,4R)-1-(5-(6-(3-cyanopyrrolo[1,2-b]pyridazin-7-yl)-4-(isopropylamino)pyridin-3-yl)-1,3,4-thiadiazol-2-yl)-3-hydroxypiperidin-4-yl)acetamide], for which the EC50 in the assay on TNFα worked out at 10.6 nM. The molecule further registered an IC50 against IRAK4 enzyme of 0.3 nM.
The like results for `CC(=O)NC12CCC(CC1)N(c1nnc(-c3cnc(-c4ccc5cc(C#N)cnn45)cc3NC(C)C)s1)C2` [Example 66, N-(2-(5-(6-(3-cyanopyrrolo[1,2-b]pyridazin-7-yl)-4-(isopropylamino)pyridin-3-yl)-1,3,4-thiadiazol-2-yl)-2-azabicyclo[2.2.2]octan-4-yl)acetamide] were, in that order, 13.6 nM and 0.42 nM.
For the molecule `CC(=O)N1CC2(C1)CN(c1nnc(-c3cnc(-c4ccc5cc(C#N)cnn45)cc3NC(C)C)s1)C2` [Example 68, 7-(5-(5-(6-acetyl-2,6-diazaspiro[3.3]heptan-2-yl)-1,3,4-thiadiazol-2-yl)-4-(isopropylamino)pyridin-2-yl)pyrrolo[1,2-b]pyridazine-3-carbonitrile], the 50% effective concentration (EC50) with TNFα was 37.9 nM. The IC50 against IRAK4 enzyme worked out at 0.45 nM.
Consider `CC(=O)NC1CCC2(CC1)CN(c1nnc(-c3cnc(-c4ccc5cc(C#N)cnn45)cc3NC(C)C)s1)C2` [Example 69, N-(2-(5-(6-(3-cyanopyrrolo[1,2-b]pyridazin-7-yl)-4-(isopropylamino)pyridin-3-yl)-1,3,4-thiadiazol-2-yl)-2-azaspiro[3.5]nonan-7-yl)acetamide], for which the EC50 in the assay with TNFα was 11.8 nM. This molecule had an IC50 against IRAK4 enzyme of 1.16 nM.
For the molecule `CC(=O)NC12CCC(c3nnc(-c4cnc(-c5ccc6cc(C#N)cnn56)cc4NC4COC4)s3)(CC1)CC2` [Example 70, N-(4-(5-(6-(3-cyanopyrrolo[1,2-b]pyridazin-7-yl)-4-(oxetan-3-ylamino)pyridin-3-yl)-1,3,4-thiadiazol-2-yl)bicyclo[2.2.2]octan-1-yl)acetamide], in the assay on TNFα, the EC50 was determined as 8.8 nM. The molecule also gave a half-maximal inhibitory concentration (IC50) against IRAK4 enzyme of 0.58 nM.
For `CC(=O)NC12CCC(c3nnc(-c4cnc(-c5ccc6cc(C#N)cnn56)cc4NC4CCOCC4)s3)(CC1)CC2` [Example 71, N-(4-(5-(6-(3-cyanopyrrolo[1,2-b]pyridazin-7-yl)-4-((tetrahydro-2H-pyran-4-yl)amino)pyridin-3-yl)-1,3,4-thiadiazol-2-yl)bicyclo[2.2.2]octan-1-yl)acetamide] the same measures were 3.2 nM and 0.58 nM.
